# Legend:
# [1] = biological target: T1, SRP/FtsY (Escherichia coli, UniProt P0AGD7+P10121); assay: Floatation analysis of co-translational membrane targeting of RNCs to SecYEG-proteoliposomes; format: biochemical, E. coli; conditions: 50 µM final concentration, 10 µM GTP
# T1 construct: (Ec)Ffh (full-length) was concentrated on a 10 kDa centrifugal filter; (Ec)FtsY (full-length) was re-buffered in HT buffer; His-tag; made in house; host or cells: E. coli
# Procedure: For in vitro synthesizing FtsQ- and LepB-RNCs, the T7-dependent expression vectors pKSM-FtsQ and pKSM-LepB were used[37],[79]. In brief, the first 102 amino acids of LepB, and the first 120 amino acids of FtsQ were fused to the SecM stalling sequence and cloned into the pET19b vector. In vitro synthesis was performed in a coupled transcription/translation system as described for YohP. After in vitro synthesis, the RNCs were incubated with INVs (1 µL), liposomes (2 µL), or SecYEG-proteoliposomes (2 µL; 100 ng SecYEG µL^−1) in floatation buffer (50 mM triethanolamine acetate, pH 8.0; 10 µM GTP, 10 mM magnesium acetate, 70 mM potassium acetate; 250 mM sucrose and 1 mM DTT) for 15 min at 25 °C. When indicated, SRP/FtsY (20 ng µL^−1 each) and ppGpp or pppGpp (50 µM final concentration) was present during incubation. Membrane binding of RNCs was assayed by floatation analyses. The reaction mixture was adjusted to 1.6 M sucrose (final volume 100 µL) and overlaid with 200 µL of 1.25 M sucrose and 100 µL 0.25 M sucrose, each prepared in floatation buffer. Following centrifugation in a TLA 100.2 rotor (Beckmann-Coulter) at […] for 90 min, the upper 200 µL of the gradient, containing the membrane fraction (MF) were withdrawn and precipitated with 10% (w/v) TCA (final concentration). The pelleted (non-bound soluble fraction, SF) RNCs were resuspended in the remaining 200 µL of the gradient and TCA precipitated. Samples were subsequently analyzed by 15% SDS-PAGE and autoradiography. RNC binding to membranes was quantified by using the ImageQuant (GE Healthcare, München, Germany) software. The experiments were performed at least three times as independent experiments and representative images are shown. Mean values and SEM values were determined by using either Excel (Microsoft Corp.) or GraphPad Prism (GraphPad Prism Corp. San Diego).
# [2] = tested on: SRP-dependent membrane insertion of YohP into INV; assay: Post-translational YohP insertion into inverted inner membrane vesicles (INV), proteinase K resistance; format: biochemical, E. coli; conditions: at 0.6 mM (p)ppGpp, 10 µM GTP
# Procedure: For protein transport assay, YohP cloned in pET19b was synthesized in vitro using a purified transcription/translation system composed of cytosolic translation factors (CTF) and high salt-washed ribosomes[35],[36]. The ^35S-Methionine/^35S-Cysteine labeling mix was obtained from Perkin Elmer (Wiesbaden, Germany). INVs of E. coli cells were prepared by sucrose gradient centrifugation of cell extracts as described[76] and resuspended in INV buffer (50 mM triethanolamine acetate, pH 7.5, 200 mM sucrose, 1 mM DTT). […] The supernatant containing YohP was then incubated with INV, liposomes or SecYEG-proteoliposomes for 10 min at 37 °C in the presence of 10 µM GTP. […] Next, the samples were denatured at 56 °C for 10 min in 35 μL of TCA loading dye (prepared by mixing one part of solution III (1 M dithiothreitol) with 4 parts of solution II (6.33% (w/v) SDS, 0.083 M Tris, 30% (v/v) glycerol and 0.053% (w/v) bromophenol blue) and 5 parts of solution I (0.2 M Tris, 0.02 M EDTA pH 8)) and analyzed after separation on a modified SDS-PAGE[35] by phosphor imaging. For quantification of YohP insertion, autoradiography samples were analyzed by using the ImageQuant (GE Healthcare) software. […] Mean values and SEM values were determined by using either Excel (Microsoft Corp.) or GraphPad Prism (GraphPad Prism Corp. San Diego). […]
# T1 sequence (P0AGD7 whole entry): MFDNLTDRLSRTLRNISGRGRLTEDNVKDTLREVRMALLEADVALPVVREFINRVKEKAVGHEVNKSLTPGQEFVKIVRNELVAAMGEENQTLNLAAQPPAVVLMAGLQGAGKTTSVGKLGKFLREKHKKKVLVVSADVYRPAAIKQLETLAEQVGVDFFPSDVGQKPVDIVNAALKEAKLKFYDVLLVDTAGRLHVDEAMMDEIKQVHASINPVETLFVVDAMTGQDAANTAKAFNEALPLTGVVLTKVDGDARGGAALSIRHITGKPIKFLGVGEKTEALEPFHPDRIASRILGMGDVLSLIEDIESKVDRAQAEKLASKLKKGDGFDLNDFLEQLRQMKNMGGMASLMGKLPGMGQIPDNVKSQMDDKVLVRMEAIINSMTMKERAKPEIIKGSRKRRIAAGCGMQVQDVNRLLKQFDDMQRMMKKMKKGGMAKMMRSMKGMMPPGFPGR
# T1 sequence (P10121 whole entry): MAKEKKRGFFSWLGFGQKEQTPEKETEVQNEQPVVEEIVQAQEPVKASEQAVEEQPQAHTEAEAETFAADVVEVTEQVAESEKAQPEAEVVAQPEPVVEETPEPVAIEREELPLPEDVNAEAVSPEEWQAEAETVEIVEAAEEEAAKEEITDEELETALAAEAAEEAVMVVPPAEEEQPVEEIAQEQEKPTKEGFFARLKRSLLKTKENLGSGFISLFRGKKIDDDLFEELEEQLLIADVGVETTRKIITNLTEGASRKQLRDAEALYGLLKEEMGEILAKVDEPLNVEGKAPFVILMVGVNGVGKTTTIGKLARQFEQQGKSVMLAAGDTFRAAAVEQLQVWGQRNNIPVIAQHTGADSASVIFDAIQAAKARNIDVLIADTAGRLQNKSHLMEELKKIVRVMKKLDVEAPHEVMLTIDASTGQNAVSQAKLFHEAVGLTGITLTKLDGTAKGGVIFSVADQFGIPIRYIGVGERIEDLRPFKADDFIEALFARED
Compound,membrane targeting of FtsQ-RNCs [1],membrane targeting of LepB-RNCs [1],YohP insertion into INV [2]
Nc1nc2c(ncn2[C@@H]2O[C@H](COP(=O)(O)OP(=O)(O)O)[C@@H](OP(=O)(O)OP(=O)(O)O)[C@H]2O)c(=O)[nH]1 [ppGpp],completely blocked,completely blocked,complete block of insertion
Nc1nc2c(ncn2[C@@H]2O[C@H](COP(=O)(O)OP(=O)(O)OP(=O)(O)O)[C@@H](OP(=O)(O)OP(=O)(O)O)[C@H]2O)c(=O)[nH]1 [pppGpp],completely blocked,completely blocked,complete block of insertion
